Experimental data reported in PubChem BioAssay (NCI).
Values joined by “and” are separate entries in the source; they are usually repeats but may differ in a detail not shown here. Equal values may be shown once.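 Step 1: Grow cells in 96-well plates. Step 2: Expose to compound for 48 hours at 5 concentrations. Step 3: Interpolate endpoints linearly; if unreached, use highest concentration. At the GI50, growth is halved. At the TGI there is no net growth.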

What was measured:
Test in all cases: inhibition of tumour cell growth, NCI panel, 48 h
SF-268 CNS = tested on: SF-268 CNS
SK-MEL-28 melanoma = tested on: SK-MEL-28 melanoma
UACC-257 melanoma = tested on: UACC-257 melanoma
SK-MEL-5 melanoma = tested on: SK-MEL-5 melanoma
OVCAR-5 ovarian = tested on: OVCAR-5 ovarian
UO-31 renal = tested on: UO-31 renal
SF-539 CNS = tested on: SF-539 CNS
NCI-H23 lung = tested on: NCI-H23 lung
ACHN renal = tested on: ACHN renal
U251 CNS = tested on: U251 CNS

Compound | TGI (SF-268 CNS) [µM] | TGI (SK-MEL-28 melanoma) [µM] | TGI (UACC-257 melanoma) | TGI (SK-MEL-5 melanoma) [µM] | TGI (OVCAR-5 ovarian) [µM] | TGI (UO-31 renal) [µM] | TGI (SF-539 CNS) | TGI (NCI-H23 lung) [µM] | TGI (ACHN renal) [µM] | TGI (U251 CNS) [µM] | GI50 (SF-268 CNS) | GI50 (SK-MEL-28 melanoma) | GI50 (UACC-257 melanoma) | GI50 (SK-MEL-5 melanoma) | GI50 (OVCAR-5 ovarian) | GI50 (UO-31 renal) | GI50 (SF-539 CNS) | GI50 (NCI-H23 lung) | GI50 (ACHN renal) | GI50 (U251 CNS)
CC1=NOC(=O)/C1=C/c1ccccc1O | > 100 | > 100 | > 100 µM | > 100 | > 100 | > 100 | > 100 µM | > 100 | > 100 | > 100 |  |  |  |  |  |  |  |  |  | 
CC(C)NC[C@@H](C(=O)N1CCN(c2ncnc3c2[C@H](C)C[C@H]3O)CC1)c1ccc(Cl)cc1 | > 100 | > 100 | > 10 µM and 49.8 µM | > 100 | > 100 | > 87.3 | > 10 µM and 40.1 µM | > 100 | > 100 | > 100 | > 10 µM and 28.7 µM | > 10 µM and 36.6 µM | > 10 µM and 10.8 µM | > 10000 nM and 27800 nM | > 10 µM and 29.8 µM | 6.57 µM and 16.2 µM | 401 nM and 396 nM | > 10 µM and 31.2 µM | > 10 µM and 22.8 µM | 958 nM and 683 nM
CC(C)(C)C[C@H]1NC(C(=O)NCC[C@H](O)CO)[C@H](c2cccc(Cl)c2)[C@@]12C(=O)Nc1cc(Cl)c(F)cc12 (stereo not given in full) | 30.2 | 30.5 | 15.9 µM | 20 | 31.8 | 19.2 | 31.8 µM | 41.6 | 16.3 | 30.5 | 13.7 µM | 15.9 µM | 1.75 µM | 6730 nM | 15.5 µM | 5.13 µM | 15500 nM | 18.7 µM | 3.28 µM | 15000 nM
CCN1C(=O)N(CC)C2C1NN=c1s/c(=C\c3cccnc3)c(=O)n12 (stereo not given) | > 100 | > 100 | > 100 µM | 12.6 | > 100 | > 100 | 2.51 µM | > 100 | > 100 | > 100 | 21.8 µM | 0.957 µM | > 100 µM | 344 nM | 1.97 µM | 1.53 µM | 319 nM | 0.689 µM | 0.694 µM | 612 nM
O=C(c1ccccc1)C1N=NCC1c1ccc([N+](=O)[O-])cc1 (stereo not given) | > 100 | > 100 | 88.4 µM | 59.6 | > 100 | > 100 | > 100 µM | > 100 | > 100 | > 100 |  |  |  |  |  |  |  |  |  | 
O=C(c1ccc(F)cc1)c1cccc(C(=O)c2ccc(F)cc2)n1 | 67.8 | > 100 | > 56.2 µM | > 79.2 | > 100 | 66.6 | 56.3 µM | 55.7 | > 100 | 44.5 |  |  |  |  |  |  |  |  |  | 
COc1cc(Cl)cc(-c2nn(C(=O)NCCN3CCOCC3)cc2-c2ccncc2)c1 | > 100 | 66 | > 100 µM | 13.1 | > 100 | 64.6 | 25.9 µM | > 100 | 90.2 | > 100 | 6.69 µM | 4.6 µM | 18.4 µM | 2590 nM | 37.8 µM | 3.85 µM | 4570 nM | 11.5 µM | 5.52 µM | 4700 nM
COC1(C(=O)N[C@@H](C)c2ccc(-n3cc(F)cn3)nc2)CCC(c2nc(C)cc(Nc3cc(C)[nH]n3)n2)CC1 (stereo not given in full) | 8.04 | 22.5 | 26.5 µM | 10.4 | 12.5 | 1.99 | 1.56 µM | 19.9 | 3.49 | 22.6 | 0.811 µM | 10.2 µM | 10.9 µM | 3180 nM | 1.4 µM | 0.436 µM | 314 nM | 2.6 µM | 1.01 µM | 1250 nM
CC1SC(c2c(Cl)cccc2Cl)N(NC(=O)c2[nH]c3ccc(F)cc3c2-c2ccccc2)C1=O (stereo not given) | 4.89 | 17.2 | 44 µM | 11.9 | 21.3 | 8.61 | 11.9 µM | 10.1 | 8.35 | 3.51 | 1.97 µM | 3.57 µM | 4.69 µM | 2720 nM | 3.06 µM | 2.13 µM | 3700 nM | 2.73 µM | 2.82 µM | 1780 nM
Cc1ccc(-c2c(N)[n+]([O-])c3ccccc3[n+]2[O-])cc1 | 73.8 | 20 | 23.5 µM | 24.4 | 32.5 | 29.7 | 29.3 µM | 19.5 | 29.1 | 27.8 |  |  |  |  |  |  |  |  |  | 
COc1ccccc1NC(=O)CC(=O)N1N=C(C)C(N=Nc2ccc(S(N)(=O)=O)cc2)C1=O (stereo not given) | > 100 | > 100 | > 100 µM | > 100 | > 100 | > 100 | > 100 µM | > 100 | > 100 | > 100 |  |  |  |  |  |  |  |  |  | 
COC(=O)CCC(NC(=S)N/N=C(\C)c1nccs1)C(=O)OC (stereo not given) | > 100 | > 100 | > 100 µM | > 100 | > 100 | > 100 | > 100 µM | > 100 | > 100 | > 100 |  |  |  |  |  |  |  |  |  | 
O=C1OC(=O)C(c2c[nH]c3ccccc23)=C1c1c[nH]c2ccccc12 | > 25 | > 25 | > 25 µM | > 25 | > 25 | > 25 | > 25 µM | > 25 | > 25 | > 25 | > 25 µM | > 25 µM | > 25 µM | > 25000 nM | > 25 µM | 8.73 µM | > 25000 nM | > 25 µM | > 25 µM | > 25000 nM
COc1ccc2nc3cc([N+](=O)[O-])ccc3c(NCCCCCN(C)C)c2c1 | 2.26 | 1.18 | 2.66 µM | 0.39 | 3.92 | 3.63 | 1.66 µM | 1.54 | 7.49 | 2.64 | 0.285 µM | 0.283 µM | 1.03 µM | 159 nM | 0.497 µM | 0.819 µM | 319 nM | 0.25 µM | 0.592 µM | 218 nM
